Earlier results as cited in patent EP2338500A1, “Process for producing concentrated and refined actives from tissues and byproducts of Olea europaea with membrane technologies” (Phenofarm S.r.l., priority 2009, dated 2011).

Tested on: murine leukemic cells P-388
Conditions: P-388 cells

| SMILES | cytotoxic activity at a concentration ED50 |
| --- | --- |
| C[C@@H]1O[C@@H](O[C@@H]2[C@@H](O)[C@H](OCCc3ccc(O)c(O)c3)O[C@H](COC(=O)/C=C/c3ccc(O)c(O)c3)[C@H]2O)[C@H](O)[C@H](O)[C@H]1O [isoverbascoside] | 10 µg/mL |
| C[C@@H]1O[C@@H](O[C@@H]2[C@@H](O)[C@H](OCCc3ccc(O)c(O)c3)O[C@H](CO)[C@H]2OC(=O)/C=C/c2ccc(O)c(O)c2)[C@H](O)[C@H](O)[C@H]1O [verbascoside] | 26 µg/mL |
